Laboratory results reported in patent US20250154146A1, “PROTEIN DEGRADERS DEVELOPED ON BASIS OF BCL-2 FAMILY PROTEIN LIGAND COMPOUNDS AND USE THEREOF” (ShanghaiTech University, priority 2022, published 2025).
Entries after “also recorded” stand apart in the source; their conditions may differ.

Experiments:
Type in all cases: cell-based
RS4;11 cells = test: Thiazolyl blue cell proliferation assay in RS4;11 cells; conditions: Homo sapiens, RS4;11 acute lymphoblastic leukemia cells, 48 hours, read-out: IC50 (nM) for inhibiting the proliferation of RS4;11 cells
Description: (§1) The cell lines RS4;11 (human acute lymphocytic leukemia cells), Molt-4 cells (human acute lymphocytic leukemia cells), MV4;11 (human myeloid monocytic leukemia cells), and Light II cells were commercially available or purchased from ATCC (American Type Culture Collection) and routinely cultured according to instructions.
1) Study on the proliferation inhibition effects induced by the compounds of the present disclosure designed based on ABT199/263 against BCL-XL-dependent RS4;11 cells:
(§2) The specific steps were as follows: RS4;11 cells were seeded at a density of 3×10^4 cells/well in 90 μL of serum-containing RPMI-1640 culture medium. DT2216 and the compounds of the present disclosure were added to the cell suspension at corresponding concentration gradients. DT2216 and DMSO were used as positive and vehicle control, respectively. The positive control and negative control were treated with the same treatment method as the compounds of the present disclosure. After treating the cells with the compounds of the present disclosure for 48 hours, thiazole blue solution (5 mg/mL) was added at 10 μL/well to the cell suspension, followed by incubation for 3 hours at 37° C. in an incubator with 5% CO2. Then, triple solution (0.1 g/mL SDS, 5% isopropyl alcohol, 10 mM hydrochloric acid) was added, followed by incubation for 4-6 hours at 37° C. in an incubator with 5% CO2. After confirming that all the crystal violets were dissolved under inverted biological microscopy, the absorbance was measured at 490 nm using an Epoch microplate reader (Biotek Corporation). The growth inhibition of the compounds of the present disclosure on the cells was plotted by GraphPad Prism 8 software, and the IC50 values of the compounds of the present disclosure were calculated therefrom. The experiment had 3 replicates per group and was repeated at least three times.
We conducted dose-dependent experiments on the designed and synthesized compounds of the present disclosure in RS4;11 cells, which are highly sensitive to BCL-XL inhibitors. The cells were treated with 7 different concentrations (starting at the highest concentration of 1000 nM or 100 nM; 10-fold serial dilutions) of the compounds for 48 hours, and then tested using the thiazolyl blue cell proliferation assay.

MV4;11 cells = test: Thiazolyl blue cell proliferation assay in MV4;11 cells; conditions: Homo sapiens, MV4;11 myeloid monocytic leukemia cells, 48 hours, read-out: IC50 (nM) for inhibiting the proliferation of MV4;11 cells
Description: as §1
2) Study on the proliferation inhibition effects induced by the compounds of the present disclosure designed based on ABT199/263 against BCL-XL-dependent MV4;11 cells:
as §2, with “MV4;11” for “RS4;11”, “2×10^4” for “3×10^4”, “IMDM” for “RPMI-1640”, “µL/well” for “μL/well”

Molt-4 cells = test: Thiazolyl blue cell proliferation assay in Molt-4 cells; conditions: Homo sapiens, Molt-4 acute lymphocytic leukemia cells, 72 hours, read-out: IC50 (nM) for inhibiting the proliferation of Molt-4 cells
Description: as §1
3) Study on the proliferation inhibition effects induced by the compounds of the present disclosure designed based on ABT199/263 against BCL-XL-dependent Molt-4 cells:
as §2, with “follows: Molt-4” for “follows: RS4;11”, “of 2×10^4” for “of 3×10^4”, “in 180” for “in 90”, “serum-containing RPMI 1640” for “serum-containing RPMI-1640”, “for 72” for “for 48”, “at 20” for “at 10”

[1] = test system: Hedgehog (Hh) signaling pathway; test: Dual-luciferase reporter assay of Hedgehog activity in Light II cells; conditions: SAG stimulation, 36 h, dual-luciferase assay reporter kit, read-out: IC50 (nM) in Light II cells (inhibiting Hedgehog activity)
Protocol: Determination of the IC50 Values of Compounds Inhibiting Hedgehog Activity—Dual-Luciferase Reporter Assay:
Light II cells were NIH3T3 cell lines that stably express the Gli-luciferase and TK-renilla reporters. They were cultured with DMEM medium containing 10% (v/v) fetal bovine serum (FBS), 0.4 mg/ml G418, 0.15 mg/ml bleomycin (Zeocin), and penicillin/streptomycin at 37° C. in an incubator with 5% CO2. Light II cells in the logarithmic growth phase were seeded at a density of 2.5×10^4 cells/well in a 96-well plate. After 24h incubation, the cells were subjected to treatment with SAG with or without different concentrations of the compounds of the present disclosure for 36 h. After that, the Hedgehog activity was measured using the dual fluorescence reporter kit according to its instructions. The experiment had 3 replicates per group and was repeated at least three times.

BCL-XL protein = molecular target: T1, BCL-XL protein (Homo sapiens, UniProt Q07817); test: Western blot of BCL-XL protein in Molt-4 cells; conditions: 100 nM, 8 h
T1 construct: endogenous in cells; host or cells: Molt-4 (human acute lymphocytic leukemia cells)
T1 sequence (Q07817 whole entry): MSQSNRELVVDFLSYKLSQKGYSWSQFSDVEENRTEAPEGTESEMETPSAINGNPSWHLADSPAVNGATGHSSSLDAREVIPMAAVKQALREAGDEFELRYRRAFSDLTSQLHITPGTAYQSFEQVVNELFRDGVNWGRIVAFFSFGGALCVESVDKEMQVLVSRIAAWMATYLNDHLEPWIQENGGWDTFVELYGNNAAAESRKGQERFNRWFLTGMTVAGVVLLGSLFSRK
Protocol: The BCL-XL antibody used in the experiment was purchased from Abcam Company, and the Tubulin antibody was purchased from Proteintech Company.
Molt-4 cells in logarithmic growth phase seeded at a density of 3×10^6 cells/well in a 6-well plate were subjected to treatment with the compounds of the present disclosure, and DMSO was used as the vehicle control group. After […] of treatment, the cells were harvested and washed once in PBS. Cells were placed on ice and treated with IP protein lysis buffer containing PMSF protease inhibitors. After centrifugation at 4° C. (10 k rpm, 5 min), the supernatant was collected and mixed with 4×LDS protein loading buffer at a volume ratio of 3:1. The mixture of protein supernatant with loading buffer were further added with 5% β-mercaptoethanol. After incubation in a metal bath at 95° C. for 10 minutes, the protein samples was stored at −80° C. or cooled directly on ice for protein electrophoresis using 10% homemade polyacrylamide gel as separation gel. Electrophoresis tank and other related components were purchased from Bio-rad company. The electrophoresis conditions were voltage 80 V for 45 minutes, then switch to voltage 120V for further electrophoresis for 1 hour. Then protein in gel was transferred onto PVDF membrane at an isocurrent of 300 mA in an icy water bath for one hour. Afterwards, the membrane was blocked with 5% skim milk for 1 hour at room temperature. Subsequently the membrane was incubated with primary antibody at 4° C. overnight or at room temperature for 2 h, then washed with 1×TBST buffer (sodium chloride, 150 mM, Tris, 10 mM, Tween 20, 0.1%; PH 7.4) for three times, and then added with secondary antibody and incubated at room temperature for 45 min, washed with 1×TBST buffer (sodium chloride, 150 mM, Tris, 10 mM, Tween 20, 0.1%; PH 7.4) three times, and subjected to color development. The antibody dilution ratio was determined according to the antibody instructions.
Molt-4 cells were seeded into a 6-well plate at a density of 3×10^6 cells per well. The next day, the cells were treated with the compounds of the present disclosure at a concentration of 100 nM, and the control groups were treated with DMSO and DT2216, respectively. Protein were extracted after 8 hours treatment, and BCL-XL protein expression was assessed by the western blot.

Row | SMILES | IC50 (RS4;11 cells) [nM] | IC50 (MV4;11 cells) [nM] | IC50 (Molt-4 cells) [nM] | IC50 [1] [nM] | BCL-XL protein expression / degradation (western blot) (BCL-XL protein)
1 | CC1(C)CCC(CN2CCN(c3ccc(C(=O)NS(=O)(=O)c4ccc(NC[C@H]5CC[C@H](N6CCN(Cc7cc(Br)c8c(c7)C(=O)N(C7CCC(=O)NC7=O)C8)CC6)CC5)c([N+](=O)[O-])c4)c(Oc4cnc5[nH]ccc5c4)c3)CC2)=C(c2ccc(Cl)cc2)C1 (relative stereo) [BCL-03146, 2-((1H-pyrrolo[2,3-b]pyridin-5-yl)oxy)-N-((4-((((trans)-4-(4-((7-bromo-2-(2,6-dioxopiperidin-3-yl)-3-oxoisoindolin-5-yl)methyl)piperazin-1-yl)cyclohexyl)methyl)amino)-3-nitrophenyl)sulfonyl)-4-(4-((4′-chloro-5,5-dimethyl-3,4,5,6-tetrahydro-[1,1′-biphenyl]-2-yl)methyl)piperazin-1-yl)benzamide] | < 20 | < 20 | < 10 | < 10 | significantly reduce the expression of BCL-XL protein; also recorded: significantly degraded BCL-XL protein
2 | C[C@H]1CN([C@H]2CC[C@@H](CNc3ccc(S(=O)(=O)NC(=O)c4ccc(N5CCN(CC6=C(c7ccc(Cl)cc7)CC(C)(C)CC6)CC5)cc4Oc4cnc5[nH]ccc5c4)cc3[N+](=O)[O-])CC2)CCN1Cc1cc(Br)c2c(c1)C(=O)N(C1CCC(=O)NC1=O)C2 (stereo partly drawn) [BCL-03169, 2-((1H-pyrrolo[2,3-b]pyridin-5-yl)oxy)-N-((4-((((cis)-4-((3S)-4-((7-bromo-2-(2,6-dioxopiperidin-3-yl)-3-oxoisoindolin-5-yl)methyl)-3-methylpiperazin-1-yl)cyclohexyl)methyl)amino)-3-nitrophenyl)sulfonyl)-4-(4-((4′-chloro-5,5-dimethyl-3,4,5,6-tetrahydro-[1,1′-biphenyl]-2-yl)methyl)piperazin-1-yl)benzamide] | < 20 | < 20 | < 10 | < 10 | –

The next lines start with results.

Row | IC50 (RS4;11 cells) [nM] | IC50 (MV4;11 cells) [nM] | IC50 (Molt-4 cells) [nM] | IC50 [1] [nM] | SMILES | BCL-XL protein expression / degradation (western blot) (BCL-XL protein)
3 | < 20 | < 20 | < 10 | < 10 | C[C@@H]1CN([C@H]2CC[C@H](CNc3ccc(S(=O)(=O)NC(=O)c4ccc(N5CCN(CC6=C(c7ccc(Cl)cc7)CC(C)(C)CC6)CC5)cc4Oc4cnc5[nH]ccc5c4)cc3[N+](=O)[O-])CC2)CCN1Cc1ccc2c(c1)CN(C1CCC(=O)NC1=O)C2=O (stereo partly drawn) [BCL-03168, 2-((1H-pyrrolo[2,3-b]pyridin-5-yl)oxy)-4-(4-((4′-chloro-5,5-dimethyl-3,4,5,6-tetrahydro-[1,1′-biphenyl]-2-yl)methyl)piperazin-1-yl)-N-((4-((((trans)-4-((3R)-4-((2-(2,6-dioxopiperidin-3-yl)-1-oxoisoindolin-5-yl)methyl)-3-methylpiperazin-1-yl)cyclohexyl)methyl)amino)-3-nitrophenyl)sulfonyl)benzamide] | –
4 | < 20 | < 20 | < 10 | < 10 | CC1(C)CCC(c2ccc(Cl)cc2)=C(CN2CCN(c3ccc(C(=O)NS(=O)(=O)c4ccc(N[C@H](CCN5CCN(Cc6ccc7c(c6)CN(C6CCC(=O)NC6=O)C7=O)CC5)CSc5ccccc5)c(S(=O)(=O)C(F)(F)F)c4)cc3)CC2)C1 (stereo partly drawn) [BCL-03177, 4-(4-((4′-chloro-4,4-dimethyl-3,4,5,6-tetrahydro-[1,1′-biphenyl]-2-yl)methyl)piperazin-1-yl)-N-((4-(((2R)-4-(4-((2-(2,6-dioxopiperidin-3-yl)-1-oxoisoindolin-5-yl)methyl)piperazin-1-yl)-1-(phenylthio)butan-2-yl)amino)-3-((trifluoromethyl)sulfonyl)phenyl)sulfonyl)benzamide] | –
5 | < 20 | < 20 | < 10 | < 10 | CC1(C)CCC(c2ccc(Cl)cc2)=C(CN2CCN(c3ccc(C(=O)NS(=O)(=O)c4ccc(N[C@H](CCN5CCN(Cc6ccc7c(c6)C(=O)N(C6CCC(=O)NC6=O)C7=O)CC5)CSc5ccccc5)c(S(=O)(=O)C(F)(F)F)c4)cc3)CC2)C1 (stereo partly drawn) [BCL-03189, 4-(4-((4′-chloro-4,4-dimethyl-3,4,5,6-tetrahydro-[1,1′-biphenyl]-2-yl)methyl)piperazin-1-yl)-N-((4-(((2R)-4-(4-((2-(2,6-dioxopiperidin-3-yl)-1,3-dioxoisoindolin-5-yl)methyl)piperazin-1-yl)-1-(phenylthio)butan-2-yl)amino)-3-((trifluoromethyl)sulfonyl)phenyl)sulfonyl)benzamide] | –
